Tests used:
[1] = system: MV4-11 cells; test: MV4-11 6-day cell growth CTG (CellTiter-Glo) assay; type: cell-based; conditions: Homo sapiens, MV4-11, 144 h, 6 days, read-out: (c) MLL/WDR5 cell proliferation assay//MLL/WDR5 proliferation MV4:11 Qualified AC50
Experimental: MV4-11 6-Day Cell Growth CTG (CellTiter-Glo) Assay
Acute myeloid leukemia cell MV4-11 (ATCC® CRL-9591™) was cultured with RPMI 1640 medium (Thermo Fisher Scientific, cat #11875) supplemented with 10% FBS (Thermo Fisher Scientific, cat #10099141) in humidified incubator at 37° C., 5% CO2. To assess the effect of WDR5 inhibitor on cell growth, the compound of the present invention was dissolved in DMSO and serially diluted at 1:3 for 12 points starting from 10 mM then 200 nL for the replicate of each dose per well was dispensed to Viewplate-384 Black (Perkin Elmer). Exponentially growing MV4-11 cells were seeded at the density of 300 cells per well in 40 μL to the plate, so the final compound working concentration starts from 50 μM. After 6 days, 40 μL CellTiter-Glo (Promega, cat #G7573) was added into the cell culture well and luminescence was read with Envision (Perkin Elmer) to determine the viable cells. The percentage inhibition was calculated against the samples treated with DMSO only and the data were used for dose response curve fitting in GraphPad Prism to get the IC50 of representative compound of present invention, which reflects the inhibition of WDR5 activity in the proliferation of MV4;11.

[2] = molecular target: wild type MLL1 four-member complex (MLL1-4C) (Homo sapiens, UniProt P61964); test: MLL1 LC-MS assay (SAH production); type: biochemical; conditions: read-out: (b) MLL LCMS Peptide Val.v.1 Qualified AC50
Experimental: The compounds of the present disclosure were serially and separately diluted 3-fold in DMSO to obtain a total of eight or twelve concentrations. Then the test compounds at each concentration (120 nL of each) were transferred by Mosquito into white Proxiplate plus 384-well microplate (PerkinElmer). Solutions (6 μL) of 60 nM wild type MLL1 four-member complex (MLL1-4C) and 5 μM SAM in the reaction buffer (20 mM Tris-HCl, pH8.0, 0.01% Tween 20, 1 mM DTT, 10 mM MgCl2, 0.01% BSA) were added to the wells that were then incubated with the test compound for 20 min. A 6 μL solution of 20 μM of the peptide substrate H3K4me0 (histone H3[1-21]-Biotin) in the reaction buffer was added to initiate each reaction. The final components in the reaction solution include 30 nM MLL1-4C, 2.5 μM SAM, and 10 μM H3K4me0 with varying concentration of the compounds. A positive control consisted of 30 nM MLL1-4C, 2.5 μM SAM, and 10 μM substrate in the absence of the test compound, and a negative control consisted of 2.5 μM SAM, and 10 μM substrate only. Each reaction was incubated at rt for 120 min, then stopped by addition of 3 μL per of quench solution (2.5% TFA with 320 nM d4-SAH). The reaction mixture was centrifuged (Eppendorf centrifuge 5810, Rotor A-4-62) for 2 min at 2000 rmp. The SAH production from the enzymatic assays were monitored by LC-MS/MS on an API 4000 triple quadrupole mass spec with Turbolon Spray (Applied Biosystem) coupled with Prominenece UFLC (Shimazu). The level of SAH production were then normalized based on the values coming from the positive and negative controls to give percent enzyme activities. The data were then fit to a dose response equation using the program Helios (Novartis) to get the IC50 values of the test compound. Helios is a Novartis in-house assay data analysis software using the methods described by Normolle, D. P., Statistics in Medicine, 12:2025-2042 (1993); Formenko, I. et al., Computer Methods and programs in Biomedicine, 82, 31-37 (2006); Sebaugh, J. L., Pharmaceutical Statistics, 10:128-134 (2011); Kelly, C. et al., Biometrics, 46(4):1071-1085 (1990); and Kahm, M, et al., Journal of Statistical Software, 33(7):(2010) (grofit: Fitting Biological Growth Curves with R, pages 1-21, available at http://www.jstatsoft.org/).

[3] = molecular target: WDR5 (Homo sapiens, UniProt P61964); test: WDR5 HTRF binding assay; conditions: read-out: (a) WDR5 HTRF Pep Val v.1[Inhibitor/IC50]Qualified AC50
Experimental: The compounds were serially diluted 3-fold in DMSO to obtain a total of twelve concentrations. Then the test compounds at each concentration (90 nL of each) were transferred by Mosquito in the white Proxiplate plus 384-well microplate (Perkin Elmer). The assay mixture (typical 9 μL) containing 6 nM WDR5 and 20 nM Biotin-MLL1 WIN peptide (3762-3773) in the assay buffer (25 mM Hepes, pH7.5, 0.05% Tween 20, 2 mM DTT, 100 mM NaCl, 0.1% BSA) were added to the wells. For counter assay, a 9 μL solution of 15 nM Biotin-PEG-His peptide was added into the wells. After 20 min incubation at rt, a 3 μL detection solution containing 14 μg/ml Phycolink Streptavidin Allophycocyanin (Prozyme), 2 nM Anti-His-Eu (PerkinElmer) in assay buffer was then added. After 1 hr incubation, the plate was read in the EnVision reader (PerkinElmer) using the HTRF protocol (The protocol set-up: Lance/Delfia dual enhancer mirror, excitation at 320 UV2 (TRF), emission at APC665, 2nd emission at EuropiμM 615). HTRF signals were normalized based on the reading coming from the positive (maximum signal control) and negative controls (minimum signal control) to give percentage of activities left. The data were then fit to a dose response equation using the program Helios (Novartis) to get the IC50 values. Helios is a Novartis in-house assay data analysis software using the methods described by Normolle, D. P., Statistics in Medicine, 12:2025-2042 (1993); Formenko, I. et al., Computer Methods and programs in Biomedicine, 82, 31-37 (2006); Sebaugh, J. L., Pharmaceutical Statistics, 10:128-134 (2011); Kelly, C. et al., Biometrics, 46(4):1071-1085 (1990); and Kahm, M, et al., Journal of Statistical Software, 33(7):(2010) (grofit: Fitting Biological Growth Curves with R, pages 1-21, available at http://www.jstatsoft.org/).

| SMILES | AC50 [1] [nM] | AC50 [2] [nM] | IC50 [3] [nM] |
| --- | --- | --- | --- |
| CCOc1cc([C@H](C)N2CCc3c(cc(Cn4ccnc4C)cc3-c3cn(C)nc3C)C2=O)ncc1C(N)=O (single isomer, unassigned) [Example 268] | 10 to 1000 | 10 to 1000 | < 10 |
| CCOc1cc([C@H](C)N2CCc3c(cc(Cn4ccnc4C)cc3-c3cc(CN(C)C)nn3C)C2=O)ncc1C#N (single isomer, unassigned) [Example 270] | 10 to 1000 | 10 to 1000 | < 10 |
| CCOc1cc([C@H](C)N2CCc3c(cc(Cn4ccnc4C)cc3-c3cn(C)c(=O)cc3C(F)(F)F)C2=O)ncc1F (single isomer, unassigned) [Example 278] | < 10 | 10 to 1000 | < 10 |
| CCOc1cc([C@H](C)N2CCc3c(cc(Cn4ccnc4C)cc3-c3cn(C)nc3C)C2=O)nnc1C#N (single isomer, unassigned) [Example 303] | < 10 | < 10 | < 10 |
| CCOc1cc(C(C)N2CCc3c(Br)cc(Cn4ccnc4NC)cc3C2=O)ncc1C#N (stereo not drawn) [Example 1, 6-(1-(5-bromo-7-((2-(methylamino)-1H-imidazol-1-yl)methyl)-1-oxo-3,4 dihydroisoquinolin-2(1H)-yl)ethyl)-4-ethoxynicotinonitrile] | 10 to 1000 | 10 to 1000 | 10 to 1000 |
| CCOc1cc(CN2CCc3c(Br)cc(Cn4ccnc4NC)cc3C2=O)cnc1C#N [Example 2, 5-((5-bromo-7-((2-(methylamino)-1H-imidazol-1-yl)methyl)-1-oxo-3,4-dihydroisoquinolin-2(1H)-yl)methyl)-3-ethoxypicolinonitrile] | 10 to 1000 | 10 to 1000 | 10 to 1000 |
| CCOc1cc([C@H](C)N2CCc3c(Cl)cc(Cn4ccnc4NC)cc3C2=O)cnc1C#N [Example 4, (S)-5-(1-(5-chloro-7-((2-(methylamino)-1H-imidazol-1-yl)methyl)-1-oxo-3,4-dihydroisoquinolin-2(1H)-yl)ethyl)-3-ethoxypicolinonitrile] | 10 to 1000 | 10 to 1000 | 10 to 1000 |
| CCOc1cc([C@H](C)N2CCc3c(Cl)cc(Cn4ccnc4NC)cc3C2=O)ncc1F [Example 5, (S)-5-chloro-2-(1-(4-ethoxy-5-fluoropyridin-2-yl)ethyl)-7-((2-(methylamino)-1H-imidazol-1-yl)methyl)-3,4-dihydroisoquinolin-1(2H)-one] | 10 to 1000 | 10 to 1000 | 10 to 1000 |
| CCOc1cc(CN2CCc3c(Cl)cc(Cn4ccnc4NC)cc3C2=O)cnc1C#N [Example 6, 5-((5-chloro-7-((2-(methylamino)-1H-imidazol-1-yl)methyl)-1-oxo-3,4-dihydroisoquinolin-2(1H)-yl)methyl)-3-ethoxypicolinonitrile] | 10 to 1000 | 10 to 1000 | 10 to 1000 |
| CNc1nccn1Cc1cc(CN2CCOCC2)c2c(c1)C(=O)N([C@@H](C)c1cnc(F)c(OC)c1)CC2 [Example 8, (S)-2-(1-(6-fluoro-5-methoxypyridin-3-yl)ethyl)-7-((2-(methylamino)-1H-imidazol-1-yl)methyl)-5-(morpholinomethyl)-3,4-dihydroisoquinolin-1(2H)-one] | 10 to 1000 | 10 to 1000 | < 10 |
| CCOc1cc([C@H](C)N2CCc3c(CN4CC[C@H](F)C4)cc(Cn4ccnc4NC)cc3C2=O)ncc1C#N [Example 9, 4-ethoxy-6-((S)-1-(5-(((S)-3-fluoropyrrolidin-1-yl)methyl)-7-((2-(methylamino)-1H-imidazol-1-yl)methyl)-1-oxo-3,4-dihydroisoquinolin-2(1H)-yl)ethyl)nicotinonitrile] | 10 to 1000 | 10 to 1000 | < 10 |
| CCOc1cc([C@H](C)N2CCc3c(CN(C)C4COC4)cc(Cn4ccnc4NC)cc3C2=O)ncc1F [Example 10, (S)-2-(1-(4-ethoxy-5-fluoropyridin-2-yl)ethyl)-5-((methyl(oxetan-3-yl)amino)methyl)-7-((2-(methylamino)-1H-imidazol-1-yl)methyl)-3,4-dihydroisoquinolin-1(2H)-one] | 10 to 1000 | 10 to 1000 | < 10 |
| CCOc1cc([C@H](C)N2CCc3c(CN4CC[C@@H](F)C4)cc(Cn4ccnc4NC)cc3C2=O)ncc1C#N [Example 11, 4-ethoxy-6-((S)-1-(5-(((R)-3-fluoropyrrolidin-1-yl)methyl)-7-((2-(methylamino)-1H-imidazol-1-yl)methyl)-1-oxo-3,4-dihydroisoquinolin-2(1H)-yl)ethyl)nicotinonitrile] | 10 to 1000 | 10 to 1000 | < 10 |
| CCOc1cc([C@H](C)N2CCc3c(CN4CCOCC4)cc(Cn4ccnc4NC)cc3C2=O)ncc1C#N [Example 12, (S)-4-ethoxy-6-(1-(7-((2-(methylamino)-1H-imidazol-1-yl)methyl)-5-(morpholinomethyl)-1-oxo-3,4-dihydroisoquinolin-2(1H)-yl)ethyl)nicotinonitrile] | 10 to 1000 | 10 to 1000 | 10 to 1000 |
| CNc1nccn1Cc1cc(CN(C)C2COC2)c2c(c1)C(=O)N([C@@H](C)c1cc(OC)c(F)cn1)CC2 [Example 13] | 10 to 1000 | 10 to 1000 | 10 to 1000 |
| CCOc1cc([C@H](C)N2CCc3c(CN4CC[C@@H](F)C4)cc(Cn4ccnc4NC)cc3C2=O)ncc1F [Example 14, 2-((S)-1-(4-ethoxy-5-fluoropyridin-2-yl)ethyl)-5-(((R)-3-fluoropyrrolidin-1-yl)methyl)-7-((2-(methylamino)-1H-imidazol-1-yl)methyl)-3,4-dihydroisoquinolin-1(2H)-one] | 10 to 1000 | 10 to 1000 | 10 to 1000 |
